The results in this text go back to PubChem BioAssay (NCI).

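Growth conditions: 96-well plates. Treatment: test compound, 48 hours, 5 concentrations. Analysis: linear interpolation between bracketing concentrations; unreached endpoints set to highest concentration. GI50 is the concentration that inhibits growth by half. TGI marks complete inhibition of growth.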

Some test systems named below: HCT-15 colon; 786-0 renal; LOX IMVI melanoma; MOLT-4 leukemia; A498 renal; MDA-MB-435; KM12 colon; SF-268 CNS; SNB-75 CNS; MCF7 breast.
Holding throughout (test): NCI tumour cell line growth inhibition, 48 h

For the molecule `Cn1cc(C2=C(c3cn(C)c4cc(N)ccc34)C(=O)NC2=O)c2ccccc21`, the GI50 with HCT-15 colon was 1.04 µM; in the assay with 786-0 renal, 3.42 µM; in the assay with LOX IMVI melanoma, 3.1 µM; in the assay with MOLT-4 leukemia, 2.26 µM; in the assay with A498 renal it was 0.944 µM; in the assay with MDA-MB-435 it was 0.112 µM. Also, the GI50 in the assay on KM12 colon was 1.45 µM; with SF-268 CNS, 3.67 µM; in the assay on SNB-75 CNS it was 0.252 µM; in the assay on MCF7 breast it was 0.696 µM. Besides, the TGI in the assay on HCT-15 colon was over 21.6 µM; with 786-0 renal it was over 25 µM; in the assay on LOX IMVI melanoma, over 25 µM; with MOLT-4 leukemia, over 18.7 µM; in the assay with A498 renal, 7.54 µM; in the assay on MDA-MB-435 it was over 21.2 µM. In addition, the TGI is 11.8 µM with KM12 colon, 13.7 µM with SF-268 CNS, 2.09 µM in the assay with SNB-75 CNS and over 16.8 µM in the assay on MCF7 breast.
On to `CCCCCCNC(=O)Oc1ccc(/C(=C(/C)Cc2ccc(OC)cc2)c2ccc(OCCN(C)C)cc2)cc1`, for which the GI50 was 2.02 µM in the assay on HCT-15 colon; 4.97 µM in the assay on 786-0 renal; 4.39 µM with LOX IMVI melanoma; 5.23 µM in the assay with MOLT-4 leukemia; 5.34 µM with A498 renal; 4.62 µM in the assay with MDA-MB-435. For the same molecule, the GI50 in the assay on KM12 colon was 4.98 µM; in the assay on SF-268 CNS, 5.07 µM; in the assay on SNB-75 CNS it was 3.99 µM; in the assay with MCF7 breast it was 1.29 µM. The TGI in the assay with HCT-15 colon is 6.6 µM; in the assay on 786-0 renal it was 9.49 µM; with LOX IMVI melanoma, 8.8 µM; in the assay on MOLT-4 leukemia it was 11.5 µM; with A498 renal, 9.92 µM; in the assay on MDA-MB-435, 9.17 µM. Also, the TGI in the assay with KM12 colon is 10.1 µM; in the assay on SF-268 CNS it was 10.9 µM; in the assay with SNB-75 CNS it was 8.53 µM; in the assay with MCF7 breast, 6.98 µM.
For `CCC[CH2][Sn]1([CH2]CCC)[O]C(=O)c2ccc(N)cc2[O]1`, the GI50 in the assay with HCT-15 colon is 0.46 µM; in the assay with 786-0 renal, 0.41 µM; with LOX IMVI melanoma, 0.287 µM; in the assay on MOLT-4 leukemia it was 0.254 µM; in the assay on A498 renal, 0.278 µM; with MDA-MB-435, 1.58 µM. Further, the GI50 in the assay with KM12 colon is 1.24 µM; with SF-268 CNS, 0.259 µM; in the assay with SNB-75 CNS, 0.116 µM; with MCF7 breast, 0.152 µM. In addition, the TGI turned out to be 2.21 µM in the assay on HCT-15 colon; 1.61 µM with 786-0 renal; 1.45 µM with LOX IMVI melanoma; 2.43 µM in the assay with MOLT-4 leukemia; 0.763 µM in the assay with A498 renal; 3.08 µM in the assay with MDA-MB-435. In addition, the TGI in the assay with KM12 colon was 2.59 µM; in the assay on SF-268 CNS it was 1.5 µM; with SNB-75 CNS, 1.84 µM; in the assay with MCF7 breast it was 0.738 µM.
Turning to `CN(C)CCCc1c2ccccc2nc2ccc(Cl)cc12`, the TGI was 93.7 µM in the assay with HCT-15 colon; 24.4 µM in the assay on 786-0 renal; 29.1 µM in the assay with LOX IMVI melanoma; 44.5 µM in the assay with MOLT-4 leukemia; 34.2 µM in the assay with A498 renal; 26.6 µM in the assay on MDA-MB-435. In addition, the TGI is 32.5 µM in the assay on KM12 colon, 33.3 µM in the assay with SF-268 CNS, 31.8 µM in the assay with SNB-75 CNS and 23.7 µM in the assay on MCF7 breast.
For the molecule `CCOC(=O)Nc1nc2cc(OCC)ccc2s1`, the GI50 with HCT-15 colon was 4.8 µM; with 786-0 renal it was over 100 µM; with LOX IMVI melanoma it was over 47.4 µM; in the assay with MOLT-4 leukemia it was 31.7 µM; in the assay on A498 renal, 6.46 µM; with MDA-MB-435, 0.923 µM. Further, the GI50 in the assay with KM12 colon is 3.86 µM; in the assay with SF-268 CNS it was over 79.7 µM; in the assay on SNB-75 CNS it was 53.8 µM; with MCF7 breast, 5.01 µM. The TGI with HCT-15 colon was over 100 µM; with 786-0 renal, over 100 µM; in the assay on LOX IMVI melanoma, over 100 µM; in the assay on MOLT-4 leukemia it was over 100 µM; in the assay with A498 renal, over 100 µM; in the assay on MDA-MB-435, 5.15 µM. Besides, the TGI in the assay on KM12 colon, in the assay on SF-268 CNS, in the assay on SNB-75 CNS and in the assay with MCF7 breast was over 100 µM in each case.
Turning to `COc1cc(/C=C2\CN(C(=O)CCN3CCC(=NO)CC3)C/C(=C\c3cc(OC)c(OC)c(OC)c3)C2=O)cc(OC)c1OC`, the GI50 is 0.972 µM in the assay on HCT-15 colon; 0.355 µM with 786-0 renal; 0.194 µM with LOX IMVI melanoma; 0.328 µM in the assay with MOLT-4 leukemia; 0.658 µM with A498 renal; 0.239 µM in the assay on MDA-MB-435. The GI50 in the assay on KM12 colon is 0.263 µM; with SF-268 CNS it was 0.535 µM; with SNB-75 CNS, 0.425 µM; in the assay with MCF7 breast it was 0.382 µM. In addition, the TGI in the assay with HCT-15 colon is 3.22 µM; in the assay on 786-0 renal it was 1.14 µM; in the assay with LOX IMVI melanoma, 0.472 µM; in the assay on MOLT-4 leukemia it was 12.1 µM; with A498 renal it was 2.07 µM; in the assay with MDA-MB-435, 0.637 µM. Also, the TGI turned out to be 0.731 µM in the assay with KM12 colon, 1.95 µM in the assay on SF-268 CNS, 2 µM with SNB-75 CNS and 2.44 µM in the assay with MCF7 breast.
Consider `Oc1c(CN2CCCC2)cc(CSCc2ccccc2)c2cccnc12`, for which the GI50 in the assay on HCT-15 colon was 0.0612 µM; in the assay on 786-0 renal, 0.728 µM; with LOX IMVI melanoma, 0.386 µM; in the assay with MOLT-4 leukemia it was 0.671 µM; with A498 renal it was 2.26 µM; with MDA-MB-435, 1.4 µM. Moreover, the GI50 was 0.635 µM in the assay with KM12 colon, 0.752 µM in the assay on SF-268 CNS, 1.5 µM with SNB-75 CNS and 0.475 µM in the assay on MCF7 breast. Besides, the TGI with HCT-15 colon amounted to 1.85 µM; with 786-0 renal it was 6.09 µM; with LOX IMVI melanoma, 2.48 µM; in the assay with MOLT-4 leukemia, 2.74 µM; in the assay on A498 renal, 8.08 µM; in the assay with MDA-MB-435 it was 13.6 µM. Also, the TGI with KM12 colon was determined as 11.9 µM; in the assay with SF-268 CNS, 14.9 µM; in the assay on SNB-75 CNS, 15.9 µM; in the assay on MCF7 breast it was 11.3 µM.
Take `CC(C(=O)O)c1ccc(-c2ccccc2)c(F)c1` (stereo not given): the TGI in the assay on HCT-15 colon, with 786-0 renal, in the assay with LOX IMVI melanoma, in the assay on MOLT-4 leukemia, in the assay on A498 renal and with MDA-MB-435 was over 100 µM each time. In addition, the TGI with KM12 colon, in the assay on SF-268 CNS, with SNB-75 CNS and in the assay on MCF7 breast was over 100 µM in each case.
